Reference: patent US5536737A, “Compound having prolyl endopeptidase inhibitory activity and pharmaceutical use thereof” (Japan Tobacco Inc., priority 1992, dated 1996)
pIC50: −log10 of the molar value. Like-named read-outs stand apart in the source and are kept apart here.

Experiments:
Format in all cases: biochemical
trypsin = molecular target: T1, trypsin (Bos taurus, UniProt P00760); assay: Trypsin-inhibitory activity; details: concentration 0.1 μM; bovine pancreas, pH 8.0
T1 construct: purchased Sigma; host or cells: bovine pancreas
T1 sequence (P00760 24-246): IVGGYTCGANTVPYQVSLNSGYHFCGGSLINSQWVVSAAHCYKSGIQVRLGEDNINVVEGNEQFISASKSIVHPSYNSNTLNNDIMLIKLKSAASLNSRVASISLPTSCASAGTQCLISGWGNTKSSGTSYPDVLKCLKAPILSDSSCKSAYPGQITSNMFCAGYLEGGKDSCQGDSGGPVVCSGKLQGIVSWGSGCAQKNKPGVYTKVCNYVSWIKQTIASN
Description: (§1) Inhibitory activity against various proteases
(§2) The compound of the present invention having predetermined concentrations was tested for the specificity of the inhibitory activity against various proteases according to a known test method.
(§3) The methods for the determination of the inhibitory activity against various proteases other than prolyl endopeptidase and the method for calculating the inhibition are as follows.
Determination of trypsin-inhibitory activity
In the present invention, a 50 mM Tris-HCI buffer (pH 8.0) was used as a buffer for measurement.
To a mixture of the above-mentioned buffer (850 μl ), a solution of the compound of the present invention in the same buffer (50 μl ) and a 0.02 μM solution of trypsin (derived from bovine pancreas, Sigma) in the same buffer (50 μl ) was added a 200 μM solution of 7-(prolyl-phenylaranyl-arginyl)-4methylcoumarinamide (Peptide Institute, Inc.) in the same buffer (50 μl), and the mixture was incubated at 30° C. for 1 hour. The reaction mixture was immersed in ice (0° C.) to terminate the reaction, and the fluorescence (b1) was determined 1 hour later (excitation at 370 nm and emission at 440 nm). Concurrently, an experiment wherein, in the system above, the trypsin solution was substituted for a buffer and an experiment wherein the solution of the compound of the present invention was substituted for said buffer were conducted. Each fluorescence (b2 and b3) was determined.
(§4) Using the fluorescence x1, x2 and x3 wherein x is b, c, d, e or f, measured in the above-mentioned manner, the inhibition against various proteases was calculated by the following formula: [formula]

cathepsin B = molecular target: T2, cathepsin B (Bos taurus, UniProt P07688); assay: Cathepsin B-inhibitory activity; details: concentration 0.1 μM; bovine spleen, pH 6.0
T2 construct: purchased Sigma; host or cells: bovine spleen
Description: as §1, §2, §3
Determination of cathepsin B-inhibitory activity
In completely the same manner as above, respective fluorescence (f1, f2 and f3) was determined using a 100 mM sodium phosphate buffer (pH 6.0; containing 1.33 mM EDTA Na2) as a buffer for determination, a 0.02 μM solution of cathepsin B (derived from bovine spleen, Sigma) in the same buffer as an enzyme solution and a 200 μM solution of 7-(N-benzyloxy-carbonyl-phenylaranyl-arginyl)-4-methylcouma-rinamide (Peptid Institute, Inc.) in the same buffer as a substrate solution.
as §4

chymotrypsin = molecular target: T3, chymotrypsin (Bos taurus, UniProt P00766); assay: Chymotrypsin-inhibitory activity; details: concentration 0.1 μM; bovine pancreas, pH 8.0
T3 construct: purchased Sigma; host or cells: bovine pancreas
Description: as §1, §2, §3
Determination of chymotrypsin-inhibitory activity
In completely the same manner as above, respective fluorescence (c1, c2 and c3) was determined using a 50 mM Tris-HCl buffer (pH 8.0) as a buffer for determination, a 0.2 μM solution of chymotrypsin (derived from bovine pancreas, Sigma) in the same buffer as an enzyme solution, and a 200 μM solution of 7-(N-succinyl-leucyl-leucyl-varyl-tyrosyl)-4-methylcoumarinamide (Peptide Institute, Inc.) in the same buffer as a substrate solution.
as §4

prolyl endopeptidase = molecular target: T4, prolyl endopeptidase (Rattus norvegicus, UniProt O70196); assay: Prolyl endopeptidase-inhibitory activity; details: for inhibition at 0.1 µM: read-out: inhibition of prolyl endopeptidase
T4 construct: prolyl endopeptidase extracted from rat brain; from tissue; host or cells: rat brain
T4 sequence (O70196 1-710): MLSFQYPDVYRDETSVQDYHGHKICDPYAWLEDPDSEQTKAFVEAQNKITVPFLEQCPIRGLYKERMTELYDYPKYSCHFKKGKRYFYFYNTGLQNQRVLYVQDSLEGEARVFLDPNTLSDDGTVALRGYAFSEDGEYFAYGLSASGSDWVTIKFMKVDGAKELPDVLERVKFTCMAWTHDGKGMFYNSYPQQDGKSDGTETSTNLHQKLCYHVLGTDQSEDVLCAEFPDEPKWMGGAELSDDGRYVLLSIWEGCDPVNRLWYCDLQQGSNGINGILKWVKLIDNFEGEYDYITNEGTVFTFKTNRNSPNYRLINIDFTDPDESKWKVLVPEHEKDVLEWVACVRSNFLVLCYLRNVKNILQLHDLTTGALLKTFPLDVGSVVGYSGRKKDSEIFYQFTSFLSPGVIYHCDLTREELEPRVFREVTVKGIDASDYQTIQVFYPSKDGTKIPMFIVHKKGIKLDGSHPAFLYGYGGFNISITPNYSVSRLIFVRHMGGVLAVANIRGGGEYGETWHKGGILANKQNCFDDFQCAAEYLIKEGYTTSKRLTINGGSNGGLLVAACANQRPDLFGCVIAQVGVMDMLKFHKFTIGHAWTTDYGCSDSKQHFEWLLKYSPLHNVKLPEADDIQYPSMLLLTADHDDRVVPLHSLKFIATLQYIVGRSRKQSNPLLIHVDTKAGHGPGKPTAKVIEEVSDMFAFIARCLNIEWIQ
Description: Prolyl endopeptidase-inhibitory activity
A mixture of a 0.1M potassium-sodium phosphate buffer (pH 7.0, 2675 μl ), a solution of the compound of the present invention in a 0.1M potassium-sodium phosphate buffer (pH 7.0, 100 μl ) and a solution of prolyl endopeptidase extracted from rat brain in a 25 mM sodium phosphate buffer (100 μl ) [123 unit/1, pH 6.8, containing 1 mM dithiothreitol and 0.5 mM EDTA, prepared by the method described in J. Neurochem., 35, 527 (1980)] was preincubated at 30° C. for 30 minutes. Thereto was added a 0.2 mM solution of 7-(N-succinyl-glycyl-prolyl)-4methylcoumarinamide (Peptide Institute, INC.) in a 0.1M potassium-sodium phosphate buffer (pH 7.0, 125 μl), and the mixture was incubated at 30° C. for 1 hour. The reaction mixture was immersed in ice (0° C.) to terminate the reaction, and the fluorescence (a1) was determined ten minutes later (excitation at 370 nm and emission at 440 nm). Concurrently, an experiment wherein, in the above system, the prolyl endopeptidase solution was substituted for a 25 mM sodium phosphate buffer (pH 6.8, containing 1 mM dithiothreitol and 0.5 mM EDTA) and an experiment wherein the solution of the compound of the present invention was substituted for a 0.1M potassium-sodium phosphate buffer (pH 7.0) were conducted. Each fluorescence (a2 and a3) was determined [See Tanpakushitsu Kakusan Koso, 29, 127 (1984)]. The prolyl endopeptidase inhibition was calculated by the following formula, and IC50, a concentration necessary for 50% inhibition, was estimated by using a semilogarithmic graph paper. [formula]

elastase = molecular target: T5, elastase (Sus scrofa, UniProt P00772); assay: Elastase-inhibitory activity; details: concentration 0.1 μM; swine pancreas, pH 8.5
T5 construct: purchased Sigma; host or cells: swine pancreas
T5 sequence (P00772 27-266): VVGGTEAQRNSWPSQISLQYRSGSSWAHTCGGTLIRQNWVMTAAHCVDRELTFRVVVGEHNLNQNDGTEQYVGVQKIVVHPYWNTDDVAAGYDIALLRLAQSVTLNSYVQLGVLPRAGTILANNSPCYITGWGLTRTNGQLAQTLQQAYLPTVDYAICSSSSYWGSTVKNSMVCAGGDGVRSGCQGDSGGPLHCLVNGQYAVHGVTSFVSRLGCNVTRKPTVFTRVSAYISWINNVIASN
Description: as §1, §2, §3
Determination of elastase-inhibitory activity
In completely the same manner as above, respective fluorescence (e1, e2 and e3) was determined using a 1 mM Tris-HCl buffer (pH 8.5) as a buffer for determination, a 0.2 μM solution of elastase (derived from swine pancreas, Sigma) in the same buffer as an enzyme solution and a 200 μM solution of 7-(N-succinyl-aranyl-prolyl-aranyl)-4-methylcoumarinamide (Peptide Institute, Inc.) in the same buffer as a substrate solution.
as §4

leucine aminopeptidase = assay: Leucine aminopeptidase-inhibitory activity; details: concentration 0.1 μM; swine kidney, pH 8.0
Description: as §1, §2, §3
Determination of leucine aminopeptidase-inhibitory activity
In completely the same manner as above, respective fluorescence (d1, d2 and d3) was determined using a 50 mM Tris-HCl buffer (pH 8.0) as a buffer for determination, a 0.2 μM solution of leucine aminopeptidase (derived from swine kidney, Sigma) in the same buffer as an enzyme solution and a 200 μM solution of 7-leucyl-4-methyl-coumarinamide (Peptide Institute, Inc.) in the same buffer as a substrate solution.
as §4

Row | Compound | inhibition at 0.1 µM (trypsin) | inhibition at 0.1 µM (cathepsin B) | inhibition at 0.1 µM (chymotrypsin) | pIC50 (prolyl endopeptidase) | inhibition at 0.1 µM (prolyl endopeptidase) | inhibition at 0.1 µM (elastase) | inhibition of leucine aminopeptidase (leucine aminopeptidase) | inhibition at 0.1 µM (prolyl endopeptidase; concentration 0.1 μM)
1 | CC(C)(C)C(=O)OCC(=O)[C@@H]1CCCN1C(=O)[C@@H]1CCCN1C(=O)NCc1ccccc1 [Compound 4, (S)-N-(Phenylmethyl)-2-[[(S)-2-(pivaloyloxyacetyl)-1-pyrrolidinyl]carbonyl]-1-pyrrolidinecarboxamide] | 0% | 0% | 0% | 9.00 | 97% | 0% | 0% | –
2 | O=C(CO)[C@@H]1CCCN1C(=O)[C@@H]1CSCN1C(=O)OCc1ccccc1 [Compound 14, (R)-4-[[(S)-2-(Hydroxyacetyl)-1-pyrrolidinyl]carbonyl]-3(phenylmethyloxycarbonyl)thiazolidine] | – | – | – | 9.00 | – | – | – | –
3 | COc1ccc(OCC(=O)N2CCC[C@H]2C(=O)N2CCC[C@H]2C(=O)COC(=O)C(C)(C)C)cc1 [Compound 10, (S)-1-[(4-Methoxyphenyl)oxyacetyl]-2-[[(S)-2-(pivaloyloxyacetyl)1-pyrrolidinyl]carbonyl]pyrrolidine] | – | – | – | 8.00 | – | – | – | –
4 | O=C(CO)[C@@H]1CCCN1C(=O)[C@@H]1CCCN1C(=O)NCCc1ccccc1 [Compound 5, (S)-2-[[(S)-2-(Hydroxyacetyl)-1-pyrrolidinyl]carbonyl]-N-(2-phenylethyl)-1-pyrrolidinecarboxamide] | 0% | 0% | 0% | 9.52 | 100% | 0% | 0% | –
5 | Cc1ccc(CNC(=O)N2CCC[C@H]2C(=O)N2CCC[C@H]2C(=O)COC(=O)c2ccccc2)cc1 [Compound 8, (S)-2-[[(S)-2-(Benzoyloxyacetyl)-1-pyrrolidinyl]carbonyl]-N-[(4methylphenyl)methyl]-1-pyrrolidinecarboxamide] | 0% | 0% | 0% | 9.40 | 100% | 0% | 0% | –
6 | CC(=O)OCC(=O)[C@@H]1CCCN1C(=O)[C@@H]1CCCN1C(=O)NCc1ccc(Cl)cc1 [Compound 15, (S)-2-[[(S)-2-(Acetoxyacetyl)-1-pyrrolidinyl]carbonyl]-N(4-chlorophenylmethyl)-1-pyrrolidinecarboxamide] | – | – | – | 8.70 | – | – | – | –
7 | COc1ccc(OCC(=O)N2CCC[C@H]2C(=O)N2CCC[C@H]2C(=O)CO)cc1 [Compound 9, (S)-2-[[(S)-2-(Hydroxyacetyl)-1-pyrrolidinyl]carbonyl]-1-[(4methoxyphenyl)oxyacetyl]pyrrolidine] | – | – | – | 8.70 | – | – | – | –
8 | O=C(CO)[C@@H]1CCCN1C(=O)[C@@H]1CCCN1C(=O)NCc1ccccc1 [Compound 2, (S)-2-[[(S)-2-(Hydroxyacetyl)-1-pyrrolidinyl]carbonyl]-N-(phenylmethyl)-1-pyrrolidinecarboxamide] | 0% | 0% | 0% | – | – | 0% | 0% | 98%
9 | CC(=O)OCC(=O)[C@@H]1CCCN1C(=O)[C@@H]1CCCN1C(=O)NCc1ccccc1 [Compound 1, (S)-2-[[(S)-2-(Acetoxyacetyl)-1-pyrrolidinyl]carbonyl]-N-(phenylmethyl)-1-pyrrolidinecarboxamide] | 0% | 0% | 0% | 10.00 | 100% | 0% | 0% | –
10 | COc1ccc(CNC(=O)N2CCC[C@H]2C(=O)N2CCC[C@H]2C(=O)CO)cc1 [Compound 6, (S)-2-[[(S)-2-(Hydroxyacetyl)-1-pyrrolidinyl]carbonyl]-N-[(4methoxyphenyl)methyl]-1-pyrrolidinecarboxamide] | 0% | 0% | 0% | 9.15 | 100% | 0% | 0% | –
11 | CCCCCCCC(=O)N1CCC[C@H]1C(=O)N1CCC[C@H]1C(=O)COC(=O)c1ccccc1 [Compound 13, (S)-2-[[(S)-2-(Benzoyloxyacetyl)-1-pyrrolidinyl]carbonyl]-1-octanoylpyrrolidine] | – | – | – | 8.10 | – | – | – | –
12 | CCCCCCCC(=O)N1CCC[C@H]1C(=O)N1CCC[C@H]1C(=O)COC(C)=O [Compound 12, (S)-2-[[(S)-2-(Acetoxyacetyl)-1-pyrrolidinyl]carbonyl]-1-octanoylpyrrolidine] | – | – | – | 8.70 | – | – | – | –
13 | CCCCCCCC(=O)N1CCC[C@H]1C(=O)N1CCC[C@H]1C(=O)CO [Compound 11, (S)-2-[[(S)-2-(Hydroxyacetyl)-1-pyrrolidinyl]carbonyl]-1-octanoylpyrrolidine] | – | – | – | 9.40 | – | – | – | –
